Assay results reported in DBAASP.
Converted amounts (≈) assume the structure as drawn. “And” between values parts separate entries of the source, which are not always exact repeats. Equal values may be shown once. Blank lines part the entries; values can stand above or below the compound they belong to.

Key:
Test in all cases: ≥ marks a high value that may be exact or a test limit, other limits are often not marked, values filed in µg/mL are converted to µM
Escherichia coli W160-37 = tested on: Escherichia coli W160-37
Staphylococcus aureus = tested on: Staphylococcus aureus
[1] = tested on: Bacillus subtilis IFO 3134
[2] = tested on: Escherichia coli IFO 12734
[3] = tested on: Pseudomonas aeruginosa IFO 12582
[4] = tested on: Staphylococcus aureus IFO 12732
[5] = tested on: Candida albicans ATCC 37092
[6] = tested on: Escherichia coli ATCC 25922
[7] = tested on: Staphylococcus aureus ATCC 29213
[8] = tested on: Staphylococcus aureus A170
[9] = tested on: Staphylococcus epidermidis
[10] = tested on: Escherichia coli NCTC 10418
[11] = tested on: Pseudomonas aeruginosa ATCC 27853
[12] = tested on: Staphylococcus aureus ATCC 25923
[13] = tested on: Staphylococcus aureus NCTC 12981
[14] = tested on: Bacillus subtilis PCI 219
[15] = tested on: Escherichia coli NIHJ JC-2
[16] = tested on: Pseudomonas aeruginosa U-31
[17] = tested on: Staphylococcus aureus FDA 209P
[18] = tested on: Candida albicans ATCC 36232
[19] = tested on: Escherichia coli ATCC 2592
[20] = tested on: Micrococcus luteus ATCC 9341
[21] = tested on: Proteus vulgaris ATCC 6380
[22] = tested on: Pseudomonas aeruginosa ATCC 9027
[23] = tested on: Staphylococcus aureus ATCC 6538
[24] = tested on: Acinetobacter baumannii ATCC 19606
[25] = tested on: Enterobacter cloacae ATCC 49141
[26] = tested on: Enterococcus faecalis ATCC 19433
Escherichia coli D21 = tested on: Escherichia coli D21
[27] = tested on: Bacillus anthracis Sterne 34F2
[28] = tested on: Bacillus subtilis var. niger ATCC 9372
[29] = tested on: Burkholderia thailandensis
Escherichia coli K91BK = tested on: Escherichia coli K91BK
[30] = tested on: Escherichia coli IFO 3972

Compound: CC[C@H](C)[C@H](NC(=O)[C@H](Cc1c[nH]c2ccccc12)NC(=O)[C@H](CCCCN)NC(=O)[C@H](CO)NC(=O)[C@H](CC(C)C)NC(=O)[C@H](Cc1ccccc1)NC(=O)[C@@H](NC(=O)[C@H](CCCCN)NC(=O)[C@H](CC(C)C)NC(=O)[C@H](CCCCN)NC(=O)[C@@H]1CCCN1)[C@@H](C)O)C(=O)NCC(=O)O [PKLKTFLSKWIG]
MIC (Escherichia coli W160-37): ≥ 107 µM | MIC (Staphylococcus aureus): 107 µM (≈ 152 µg/mL)

Compound: NC(=O)[C@H](Cc1c[nH]c2ccccc12)NC(=O)[C@H](CCCN=C(N)N)NC(=O)[C@H](Cc1c[nH]c2ccccc12)NC(=O)[C@H](CCCN=C(N)N)NC(=O)[C@@H](N)Cc1c[nH]c2ccccc12 [WRWRW]
MIC [6]: 16.9 µM (≈ 15 µg/mL) | MIC [10]: ≥ 72 µM | MIC [11]: 56.2 µM (≈ 49.9 µg/mL) | MIC [12]: 11.2 µM (≈ 9.99 µg/mL) | MIC [13]: ≥ 72 µM

Compound: CC(C)C[C@H](NC(=O)[C@H](CCCCN)NC(=O)[C@H](CCCCN)NC(=O)[C@H](CC(C)C)NC(=O)[C@H](CC(C)C)NC(=O)[C@H](CCCCN)NC(=O)[C@H](CCCCN)NC(=O)[C@H](Cc1c[nH]c2ccccc12)NC(=O)[C@H](CC(C)C)NC(=O)[C@H](CCCCN)NC(=O)[C@H](CC(C)C)NC(=O)[C@H](CC(C)C)NC(=O)[C@H](CCCCN)NC(=O)[C@H](CCCCN)NC(=O)[C@H](CC(C)C)NC(=O)[C@H](CC(C)C)NC(=O)[C@@H](N)CCCCN)C(=O)N[C@@H](CCCCN)C(=O)O [KLLKKLLKLWKKLLKKLK]
MIC [14]: ≥ 44.2 µM | MIC [15]: ≥ 44.2 µM | MIC [16]: ≥ 44.2 µM | MIC [17]: ≥ 44.2 µM

Compound: CC[C@H](C)[C@H](NC(=O)[C@H](CCCN=C(N)N)NC(=O)[C@@H](NC(=O)[C@@H](NC(=O)[C@H](CCCN=C(N)N)NC(=O)[C@H](CC(C)C)NC(=O)[C@@H](NC(=O)[C@@H](NC(=O)[C@@H]1CCCN1C(=O)CNC(=O)[C@H](Cc1ccc(O)cc1)NC(=O)[C@H](CCCCN)NC(=O)[C@H](CCCCN)NC(=O)[C@@H](NC(=O)[C@H](C)NC(=O)[C@H](Cc1cnc[nH]1)NC(=O)[C@@H](NC(=O)[C@@H](NC(=O)[C@H](CCCCN)NC(=O)[C@H](CCCN=C(N)N)NC(=O)CNC(=O)[C@H](CC(C)C)NC(=O)[C@H](CCCN=C(N)N)NC(=O)[C@H](CCCN=C(N)N)NC(=O)[C@H](CC(C)C)NC(=O)[C@H](C)NC(=O)CNC(C)=O)[C@@H](C)CC)[C@@H](C)O)C(C)C)[C@@H](C)O)C(C)C)[C@@H](C)CC)[C@@H](C)CC)C(=O)N[C@@H](C)C(=O)NCC(N)=O [GALRRLGRKITHAVKKYGPTVLRIIRIAG]
MIC [27]: 1.19 µM (≈ 3.87 µg/mL) | MIC [28]: 1.31 µM (≈ 4.27 µg/mL) | MIC [29]: ≥ 84.1 µM | MIC (Escherichia coli K91BK): 28.7 µM (≈ 93.4 µg/mL)

Compound: CC(C)[C@H](NC(=O)[C@H](CCCCN)NC(=O)[C@H](CCCN=C(N)N)NC(=O)[C@H](CCCCN)NC(=O)[C@H](CCCCN)NC(=O)[C@H](CCCCN)NC(=O)[C@@H]1CCCN1)C(=O)O [PKKKRKV]
MIC [30]: ≥ 500 µM | MIC [17]: ≥ 500 µM

The remaining lines, values ahead:

MIC [1]: ≥ 64 µM | MIC [2]: ≥ 64 µM | MIC [3]: ≥ 64 µM | MIC [4]: ≥ 64 µM
Compound: CC[C@H](C)[C@H](NC(=O)[C@H](C)NC(=O)[C@@H]1CCCN1C(=O)[C@@H](NC(=O)[C@@H](NC(=O)[C@H](Cc1cnc[nH]1)NC(=O)[C@H](C)NC(=O)[C@H](C)NC(=O)[C@@H](NC(=O)[C@H](CCCCN)NC(=O)[C@H](C)NC(=O)[C@H](CC(C)C)NC(=O)[C@@H](NC(=O)CNC(=O)[C@H](Cc1ccccc1)NC(=O)[C@H](C)N)C(C)C)C(C)C)C(C)C)C(C)C)C(=O)N[C@@H](C)C(=O)N[C@@H](CCC(=O)O)C(=O)N[C@@H](Cc1cnc[nH]1)C(=O)N[C@@H](Cc1ccccc1)C(N)=O [AFGVLAKVAAHVVPAIAEHF]

MIC [5]: 1.12 µM (≈ 3.29 µg/mL) | MIC [6]: 0.45 µM (≈ 1.32 µg/mL) | MIC [7]: 2.6 µM (≈ 7.64 µg/mL)
Compound: CC[C@H](C)[C@H](NC(=O)[C@H](CCCN=C(N)N)NC(=O)[C@@H](N)CCCN=C(N)N)C(=O)N[C@@H](CCCN=C(N)N)C(=O)N1CCC[C@H]1C(=O)N[C@@H](CCCN=C(N)N)C(=O)N1CCC[C@H]1C(=O)N1CCC[C@H]1C(=O)N[C@@H](CCCN=C(N)N)C(=O)N[C@@H](CC(C)C)C(=O)N1CCC[C@H]1C(=O)N[C@@H](CCCN=C(N)N)C(=O)N1CCC[C@H]1C(=O)N[C@@H](CCCN=C(N)N)C(=O)N1CCC[C@H]1C(=O)N[C@@H](CCCN=C(N)N)C(=O)N1CCC[C@H]1C(=O)N[C@@H](CC(C)C)C(=O)N1CCC[C@H]1C(=O)N[C@@H](Cc1ccccc1)C(=O)N1CCC[C@H]1C(=O)N[C@@H](CCCN=C(N)N)C(=O)N1CCC[C@H]1C(=O)NCC(=O)O [RRIRPRPPRLPRPRPRPLPFPRPG]

MIC [8]: 6.97 µM (≈ 10 µg/mL) | MIC [9]: 13.9 µM (≈ 20 µg/mL)
Compound: CC[C@H](C)[C@H](NC(=O)[C@@H]1CCCN1C(=O)[C@H](CC(C)C)NC(=O)[C@@H](N)CC(C)C)C(=O)N[C@H](C(=O)N[C@H](C(=O)N[C@@H](CC(N)=O)C(=O)N[C@@H](CC(C)C)C(=O)N[C@@H](CC(C)C)C(=O)N[C@@H](CCCCN)C(=O)N[C@@H](CO)C(=O)N[C@@H](CC(C)C)C(=O)N[C@@H](CC(C)C)C(=O)O)C(C)C)C(C)C [LLPIVVNLLKSLL]

MIC [18]: 2.69 µM (≈ 6.25 µg/mL) | MIC [19]: 5.39 µM (≈ 12.5 µg/mL) | MIC [20]: 2.69 µM (≈ 6.25 µg/mL) | MIC [21]: ≥ 43.1 µM | MIC [22]: 5.39 µM (≈ 12.5 µg/mL) | MIC [23]: 5.39 µM (≈ 12.5 µg/mL) | MIC (Staphylococcus aureus): 10.8 µM (≈ 25 µg/mL)
Compound: CC[C@H](C)[C@H](NC(=O)[C@H](CCCCN)NC(=O)[C@@H]1CCCN1C(=O)[C@H](CC(C)C)NC(=O)[C@H](Cc1ccccc1)NC(=O)[C@H](CC(N)=O)NC(=O)[C@H](C)NC(=O)[C@H](C)NC(=O)[C@H](CC(C)C)NC(=O)CNC(=O)[C@H](C)NC(=O)[C@H](CC(C)C)NC(=O)[C@@H](N)CC(C)C)C(=O)N[C@@H](Cc1ccccc1)C(=O)N[C@@H](CS)C(=O)N[C@@H](CCCCN)C(=O)N[C@H](C(=O)N[C@H](C(=O)N[C@@H](CCCN=C(N)N)C(=O)N[C@@H](CCCCN)C(=O)N[C@@H](CS)C(N)=O)[C@@H](C)O)[C@@H](C)CC [LLAGLAANFLPKIFCKITRKC]

MIC [24]: 25 µM (≈ 44.2 µg/mL) | MIC [25]: 6.2 µM (≈ 11 µg/mL) | MIC [26]: ≥ 50 µM | MIC [6]: 50 µM and 75 µM | MIC (Escherichia coli D21): 25 µM (≈ 44.2 µg/mL) | MIC [11]: 12.5 µM and 25 µM
Compound: CC(C)C[C@H](NC(=O)[C@H](CCCCN)NC(=O)[C@H](CCCCN)NC(=O)[C@H](CC(C)C)NC(=O)[C@H](CC(C)C)NC(=O)[C@H](CCCCN)NC(=O)[C@H](CCCCN)NC(=O)[C@H](CC(C)C)NC(=O)[C@H](CC(C)C)NC(=O)[C@H](CCCCN)NC(=O)[C@H](CCCCN)NC(=O)[C@H](CC(C)C)NC(=O)[C@H](C)NC(=O)[C@H](CC(=O)O)NC(=O)[C@@H](N)CC(=O)O)C(=O)O [DDALKKLLKKLLKKL]
